Literature values as cited in patent publication US20180016637A1, “METHOD OF EVALUATING THE RESPONSE OF ATAXIA TELANGIECTASIA PATIENTS TO GLUCOCORTICOIDS TREATMENT” (EryDel S.p.A., priority 2015, published 2018).

Test system: lymphoblastoid cell lines from lymphocytes of A-T patients

Q: With `C[C@@H]1C[C@H]2[C@@H]3CCC4=CC(=O)C=C[C@]4(C)[C@@]3(F)[C@@H](O)C[C@]2(C)[C@@]1(O)C(=O)COP(=O)(O)O` [Dexamethasone sodium phosphate] as the compound, how does the “transcript induced in vitro” value read?
A: a transcript of about 1582 bp denominated ATMdexa1
